Measured values: patent US20210387996A1, “TRICYCLIC COMPOUNDS FOR THE TREATMENT AND PROPHYLAXIS OF HEPATITIS B VIRUS DISEASE” (priority 2018, published 2021)

Assays:
[1] = test system: HBV (extracellular HBsAg) in PHH; experiment: Cryopreserved primary human hepatocytes (PHH) HBV infection assay, extracellular HBsAg (CLIA); assay type: cell-based; settings: Hepatitis B virus, Hepatocyte, 216 h, read-out: HBsAg IC50
Description: This assay is used to confirm the anti-HBV effect of the compounds in HBV PHH infection assay. Cryopreserved PHH (BioreclamationIVT, Lot YJM) was thawed at 37° C. and gently transferred into pre-warmed InVitroGRO HT medium (BioreclamationIVT, Cat. S03317). The mixture was centrifuged at 70 relative centrifugal force (RCF) for 3 mins at RT, and the supernatant was discarded. Pre-warmed InVitroGRO CP medium (BioreclamationIVT, Cat #S03316) was added to the cell pellet to gently re-suspend cells. The cells were seeded at the density of 5.8×10^4 cells per well to collagen I coated 96-well plate (Gibco, Cat. A1142803) with the InVitroGRO CP medium. All plates were incubated at 37° C. with 5% CO2 and 85% humidity.
At 20 hours after plating, the medium was changed to PHH culture medium (Dulbecco's Modified Eagle Medium (DMEM)/F12 (1:1) (Gibco, Cat. 11320-033), 10% fetal bovine serum (Gibco Cat. 10099141), 100 U/mL penicillin, 100 μg/mL streptomycin (Gibco, Cat. 151401-122), 5 ng/mL human epidermal growth factor (Invitrogen Cat. PHG0311L), 20 ng/mL dexamethasone (Sigma, Cat. D4902) and 250 ng/mL human recombinant insulin (Gibco, Cat. 12585-014)). And the cells were incubated at 37° C. with 5% CO2 and 85% humidity for 4 hours. The medium was then changed to pre-warmed PHH culture medium containing 4% polyethylene glycol (PEG) MW8000 (Sigma, Cat. P1458-50ML) and 1% DMSO (Sigma, Cat. D2650). 5.8×10^6 genomic equivalents of HBV were added into the medium.
At 24 hours post-infection, the cells were gently washed with PBS and refreshed with PHH culture medium supplemented with 1% DMSO, and 0.25 mg/mL Matrix gel (Corning, Cat. 356237) at 200 μL per well. All plates were immediately placed in at 37° C. CO2 incubator.
24 hours later, serial dilutions of compounds made with DMSO were further diluted with the same culture medium (PHH culture medium supplemented with 1% DMSO and 0.25 mg/mL Matrix gel as described above) before they were added to the cells to reach desired final compound concentrations and 1% DMSO concentration. The medium containing the compounds were refreshed every three days.
At 9 days post-compound treatment, extracellular HBsAg level were measured with Chemiluminescence Immuno Assay (CLIA) kit (Autobio, HBsAg Quantitative CLIA). Extracellular HBV DNA was extracted by MagNA Pure 96 system (Roche) and then determined by quantitative PCR with the following primers and probe: […]
HBsAg IC50 and HBV DNA IC50 values were derived from the dose-response curve using 4 parameter logistic curve fit method. The compounds of formula (I) have HBsAg IC50<20 μM, particularly <1 μM; and HBV DNA IC50<50 μM.

[2] = test system: HBeAg level in HepDES19 cells (surrogate marker for cccDNA); experiment: Engineered HepDES19 primary screen assay (HBeAg as surrogate marker for cccDNA); assay type: cell-based, HBV; settings: Hepatitis B virus, HepDES19, 120 h, read-out: IC50 (HBeAg level, HepDES19 primary screen assay)
Excerpt: The assay was employed to screen for novel cccDNA inhibitors. HepDES19 is a cccDNA-producing cell line. In this cell line, HBeAg in the cell culture supernatant as surrogate marker, as HBeAg production depends on cccDNA level and activity. HepDES19 is an engineered cell line which contains a 1.1 unit length HBV genome, and pgRNA transcription from the transgene is controlled by Tetracycline (Tet). In the absence of Tet, pgRNA transcription will be induced, but HBV e antigen (HBeAg) could not be produced from this pgRNA due to very short leader sequence before the HBeAg start codon and the start codon is disrupted. Only after cccDNA is formed, the missing leader sequence and start codon mutation would be restored from the 3′-terminal redundancy of pgRNA, and then HBeAg could be synthesized. Therefore, HBeAg could be used as a surrogate marker for cccDNA (Zhou, T. et al., Antiviral Res. (2006), 72(2), 116-124; Guo, H. et al., J. Virol. (2007), 81(22), 12472-12484).
HepDES19 cells were seeded at 2×10^6 cells per T150 flask and cultured with the culture medium (Dulbecco's Modified Eagle Medium: Nutrient Mixture F-12 [DMEM-F12, Gibco Cat. 11320-82], 10% Fetal Bovine Serum [FBS, Clontech Cat. 631101], 0.1 mM Non-Essential Amino Acids Solution [NEAA, Gibco Cat. 11140-050], 50 μg/mL Penicillin-Streptomycin [PS, Invitrogen Cat. 15140-163], 500 μg/mL Geneticin [G418, Invitrogen Cat. 10131-027]) containing 3 μg/mL Tet (Sigma, Cat. 87128) for 5 days. Cells were then seeded at 4×10^6 cells per T150 in the same culture medium as described above in the absence of Tet for 8 days. Cells were then harvested and frozen at density of 2×10^6 cells per mL. For compound testing, the frozen cells were thawed and seeded into 96-well plates at a density of 6×10^4 cells per well. At 24 hours after seeding, half log serial dilutions of compounds made with Dimethyl sulfoxide (DMSO, Sigma, Cat. D2650) were further diluted with the same culture medium as described above before they were added to the cells to reach desired final compound concentrations and 1% DMSO concentration. Plates were then incubated at 37° C. for another 5 days before measurement of HBeAg level and cell viability. Intracellular HBeAg level were measured with enzyme-linked immunosorbent assay (ELISA) kit (Shanghai Kehua Diagnostic Medical Products Co., Ltd). Cell viability was assessed using Cell Counting Kit-8 (Donjindo, Cat. CK04-20). IC50 values were derived from the dose-response curve using 4 parameter logistic curve fit method.
The compounds of the present invention were tested for their capacity to inhibit extracellular HBeAg level as described herein.

O=C1c2oc3c(Cl)cccc3c(=O)c2CCN1c1ccc(F)cc1 [Example 14, 9-chloro-2-(4-fluorophenyl)-3,4-dihydro-2H-chromeno[2,3-c]pyridine-1,5-dione]
IC50 [1]: 9.85 µM | IC50 [2]: 2.07 µM

O=C1c2oc3c(Cl)cccc3c(=O)c2CCN1c1ccccc1OC(F)(F)F [Example 23, 9-chloro-2-(2-(trifluoromethoxy)phenyl)-3,4-dihydro-2H-chromeno[2,3-c]pyridine-1,5-dione]
IC50 [1]: 16.5 µM | IC50 [2]: 6.88 µM

COc1cccc(N2CCc3c(oc4c(Cl)cccc4c3=O)C2)c1 [Example 41, 9-chloro-2-(3-methoxyphenyl)-1,2,3,4-tetrahydro-5H-chromeno[2,3-c]pyridin-5-one]
IC50 [1]: 30.7 µM | IC50 [2]: 19.2 µM

O=C1c2oc3c(Cl)cccc3c(=O)c2CCN1c1ccc(Cl)c(Cl)c1 [Example 28, 9-chloro-2-(3,4-dichlorophenyl)-3,4-dihydro-2H-chromeno[2,3-c]pyridine-1,5-dione]
IC50 [1]: 0.57 µM | IC50 [2]: 1.08 µM

O=C1c2oc3c(Cl)cccc3c(=O)c2CCN1c1ccc(Cl)cc1C(F)(F)F [Example 27, 9-chloro-2-(4-chloro-2-(trifluoromethyl)phenyl)-3,4-dihydro-2H-chromeno[2,3-c]pyridine-1,5-dione]
IC50 [1]: 13 µM | IC50 [2]: 0.89 µM

O=C1c2oc3c(Cl)cccc3c(=O)c2CN1c1ccc(Cl)cc1 [Example 51, 5-chloro-2-(4-chlorophenyl)-1H-chromeno[2,3-c]pyrrole-3,9-dione]
IC50 [1]: 5.8 µM | IC50 [2]: 5.46 µM

O=C1c2oc3c(Cl)cccc3c(=O)c2CCN1c1ccc(Cl)cc1 [Example 12, 9-chloro-2-(4-chlorophenyl)-3,4-dihydro-1H-chromeno[2,3-c]pyridine-1,5(2H)-dione]
IC50 [1]: 2.76 µM | IC50 [2]: 0.82 µM

O=C(O)C1CC(Oc2ccccc2N2CCc3c(oc4c(Cl)cccc4c3=O)C2=O)C1 (stereo not shown) [Example 25, 3-(2-(9-chloro-1,5-dioxo-1,3,4,5-tetrahydro-2H-chromeno[2,3-c]pyridin-2-yl)phenoxy)cyclobutane-1-carboxylic Acid]
IC50 [1]: 48.4 µM

O=C1c2oc3c(Cl)cccc3c(=O)c2CCN1c1ccc(Cl)cc1F [Example 29, 9-chloro-2-(4-chloro-2-fluorophenyl)-3,4-dihydro-2H-chromeno[2,3-c]pyridine-1,5-dione]
IC50 [1]: 2.17 µM | IC50 [2]: 2.36 µM

O=C1c2oc3c(Cl)cccc3c(=O)c2CCN1c1ccc(F)c(C(F)(F)F)c1 [Example 18, 9-chloro-2-(4-fluoro-3-(trifluoromethyl)phenyl)-3,4-dihydro-2H-chromeno[2,3-c]pyridine-1,5-dione]
IC50 [1]: 2.84 µM | IC50 [2]: 14 µM

COc1cc(Cl)ccc1N1CCc2c(oc3c(Cl)cccc3c2=O)C1=O [Example 17, 9-chloro-2-(4-chloro-2-methoxyphenyl)-3,4-dihydro-2H-chromeno[2,3-c]pyridine-1,5-dione]
IC50 [1]: 14.7 µM | IC50 [2]: 2.4 µM

CC(C)(C)OC(=O)N1CCc2c(oc3c(Cl)cccc3c2=O)C1 [Example 1, tert-butyl 9-chloro-5-oxo-3,4-dihydro-1H-chromeno[2,3-c]pyridine-2(5H)-carboxylate]
IC50 [1]: 10.6 µM | IC50 [2]: 9.12 µM

O=C1c2oc3c(Cl)cccc3c(=O)c2CCN1c1ccc(C(F)(F)F)cc1 [Example 20, 9-chloro-2-(4-(trifluoromethyl)phenyl)-3,4-dihydro-2H-chromeno[2,3-c]pyridine-1,5-dione]
IC50 [1]: 7.4 µM | IC50 [2]: 5.68 µM

COc1ccc(N2CCc3c(oc4c(Cl)cccc4c3=O)C2=O)cc1 [Example 9, 9-chloro-2-(4-methoxyphenyl)-3,4-dihydro-1H-chromeno[2,3-c]pyridine-1,5(2H)-dione]
IC50 [1]: 3.52 µM | IC50 [2]: 2.73 µM

O=C1c2oc3c(Cl)cccc3c(=O)c2CCN1c1ccc(Cl)nc1 [Example 16, 9-chloro-2-(6-chloropyridin-3-yl)-3,4-dihydro-2H-chromeno[2,3-c]pyridine-1,5-dione]
IC50 [1]: 3.17 µM | IC50 [2]: 34.4 µM

O=c1c2c(oc3c(Cl)cccc13)CN(c1ccc(C(F)(F)F)cc1)CC2 [Example 39, 9-chloro-2-(4-(trifluoromethyl)phenyl)-1,2,3,4-tetrahydro-5H-chromeno[2,3-c]pyridin-5-one]
IC50 [1]: 5.65 µM | IC50 [2]: 0.96 µM

Cn1cc(N2CCc3c(oc4c(Cl)cccc4c3=O)C2=O)cn1 [Example 35, 9-chloro-2-(1-methyl-1H-pyrazol-4-yl)-3,4-dihydro-2H-chromeno[2,3-c]pyridine-1,5-dione]
IC50 [1]: 10.5 µM | IC50 [2]: 46.9 µM

O=C1c2oc3c(Cl)cccc3c(=O)c2CCN1c1ccc(Cl)c(C(F)(F)F)c1 [Example 22, 9-chloro-2-(4-chloro-3-(trifluoromethyl)phenyl)-3,4-dihydro-2H-chromeno[2,3-c]pyridine-1,5-dione]
IC50 [1]: 3.44 µM | IC50 [2]: 25.6 µM

O=C(O)C1CC(Oc2cc(Cl)ccc2N2CCc3c(oc4c(Cl)cccc4c3=O)C2=O)C1 (stereo not shown) [Example 26, 3-(5-chloro-2-(9-chloro-1,5-dioxo-1,3,4,5-tetrahydro-2H-chromeno[2,3-c]pyridin-2-yl)phenoxy)cyclobutane-1-carboxylic Acid]
IC50 [1]: 18.1 µM

O=C1c2oc3c(Cl)cccc3c(=O)c2CCN1c1ccccc1 [Example 19, 9-chloro-2-phenyl-3,4-dihydro-2H-chromeno[2,3-c]pyridine-1,5-dione]
IC50 [1]: 16.9 µM | IC50 [2]: 0.56 µM

COc1ccc(N2CCc3c(oc4c(Cl)cccc4c3=O)C2)cc1 [Example 40, 9-chloro-2-(4-methoxyphenyl)-1,2,3,4-tetrahydro-5H-chromeno[2,3-c]pyridin-5-one]
IC50 [1]: 11.6 µM | IC50 [2]: 5.9 µM
